Source: patent publication US9221746B2, “Homo- and hetero-polyamino-acid derivatives of fullerene C60, method for producing same, and pharmaceutical compositions based on said derivatives” (priority 2011, dated 2015)

Tested on: human lymphoblastoid cells
Test: Cytotoxicity in human lymphoblastoid cells model
Format: cell-based

Fullerene Poly(Aminocaproic Acid) of Formula C60(H3){NH(CH2)5COO—}3{NH3^+(CH2)5COOH}3 [Agent No. 1]
Cell survival rate, % (0.5 mcg/mL): 95% | Number of cells × 10^3/mL (0.5 mcg/mL): 833 × 10^3/mL | Cell survival rate, % (1.0 mcg/mL): 94% | Number of cells × 10^3/mL (1.0 mcg/mL): 833 × 10^3/mL | Cell survival rate, % (5.0 mcg/mL): 98% | Number of cells × 10^3/mL (5.0 mcg/mL): 799 × 10^3/mL | Cell survival rate, % (10.0 mcg/mL): 94% | Number of cells × 10^3/mL (10.0 mcg/mL): 767 × 10^3/mL | Cell survival rate, % (100 mcg/mL): 95% | cytotoxic effect on cells (concentrations of 0.5 to 10 mcg/mL): no cytotoxic effect
